Data from patent publication US12527835B2, “Brevican-binding peptides for brain tumor imaging” (The Brigham and Women's Hospital, Inc., priority 2018, dated 2026).
Where a SMILES comes first, the peptide text is derived from it. Where no end group is shown, it is not given here. [ ]: non-standard residue; d: D form. Ahx = NCCCCCC(=O)O

How the values were obtained:
HEK-Bcan cells [1] = assay: Flow cytometry blocking study with 50× molar excess of unlabeled peptide; format: cell-based, human; conditions: fluorescein-conjugated peptide 1 μM
Experimental: (§1) Cells were washed once with PBS and then, treated with 1 mL of 2.5 mM EDTA to dissociate the cells. The EDTA was removed by centrifugation, and PBS supplemented with 10% FBS was added to create a single-cell suspension. All peptide stocks were dissolved in DMSO, and stored at −20° C. in the dark. Cells were incubated with each peptide (at the desired final concentration, between 1-10 μM) for 3 hrs at 37° C. in the dark under constant rotation. After incubation, cells were washed 3× with PBS with 10% FBS (by centrifugation at 7000 rpm for 3 mins each). Then, cells were resuspended in 3.7% formaldehyde for fixation, and finally washed once with PBS. Cells were evaluated for peptide uptake (mean fluorescence intensity) by flow cytometry (10,000-20,000 events).
For blocking studies, cells were dissociated as described above and resuspended in cold PBS with 10% FBS. Cells were then incubated with a 50× molar excess of unlabeled peptide for 10 mins on ice, before adding the corresponding FITC-labeled peptide at a final concentration of 1 μM and incubated for 1.5 hrs on ice. Cells were then washed with cold PBS with 10% FBS, fixed and analyzed by flow cytometry.

[2] = molecular target: T1, recombinant BΔg protein (deglycosylated brevican) (Homo sapiens, UniProt Q96GW7); assay: Octet steady state binding affinity to recombinant BΔg
T1 construct: purchased R&D Systems 4009-BC-050
T1 sequence (Q96GW7 23-911): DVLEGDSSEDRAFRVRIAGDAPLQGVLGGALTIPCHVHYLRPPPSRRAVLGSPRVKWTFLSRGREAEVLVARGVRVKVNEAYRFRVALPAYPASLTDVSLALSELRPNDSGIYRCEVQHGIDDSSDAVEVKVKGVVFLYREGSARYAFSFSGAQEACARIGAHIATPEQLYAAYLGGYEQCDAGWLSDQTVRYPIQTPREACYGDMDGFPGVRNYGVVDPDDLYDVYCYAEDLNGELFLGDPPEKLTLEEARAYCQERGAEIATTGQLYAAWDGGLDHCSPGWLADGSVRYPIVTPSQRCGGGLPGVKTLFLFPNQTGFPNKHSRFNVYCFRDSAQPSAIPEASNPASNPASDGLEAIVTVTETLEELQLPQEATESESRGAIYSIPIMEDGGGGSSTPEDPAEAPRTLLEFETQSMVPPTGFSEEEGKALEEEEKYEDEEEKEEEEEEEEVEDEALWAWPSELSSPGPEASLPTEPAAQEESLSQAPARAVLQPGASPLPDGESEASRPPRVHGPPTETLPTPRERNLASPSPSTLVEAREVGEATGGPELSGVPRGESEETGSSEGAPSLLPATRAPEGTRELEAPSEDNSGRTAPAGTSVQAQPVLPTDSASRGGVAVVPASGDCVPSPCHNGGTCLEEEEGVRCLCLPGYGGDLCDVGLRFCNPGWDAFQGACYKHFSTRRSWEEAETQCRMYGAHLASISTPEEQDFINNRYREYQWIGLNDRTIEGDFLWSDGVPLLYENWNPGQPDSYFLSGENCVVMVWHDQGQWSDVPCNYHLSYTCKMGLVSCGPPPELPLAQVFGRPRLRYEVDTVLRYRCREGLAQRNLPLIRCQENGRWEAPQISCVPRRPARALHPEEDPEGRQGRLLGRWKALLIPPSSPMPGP
Experimental: A ForteBio OctetRed384 instrument was used to study the binding kinetics of each peptide to recombinant human brevican (re-suspended in PBS and 0.1 mM EDTA, pH 6.8). The brevican protein was deglycosylated prior to experimental use in water+0.05% tween, PI, sialidase, 0-glycosidase, N-glycosidase in sodium acetate [200 mM], NaCl [250 mM], Tris-HCl [200 mM], pH 7.5.) in the presence of protease inhibitor overnight at 4° C. (this entire composition will be referred to as ‘de-glycosylation buffer’). […] The final volume for all the solutions was 80 μl/well. Assays were performed at 30° C. in solid black 384-well plates (Geiger Bio-One). Prior to beginning, Ni-NTA biosensors were soaked for 10 min in working buffer. Before loading the protein onto each biosensor, a baseline was established in working buffer for 60 s. Deglycosylated brevican (50 μg/ml BΔg; His-tagged) was loaded on the surface of each biosensors for 180 s. […] Reference biosensors were also included in the plate as internal controls, where biosensors were exposed to the ‘de-glycosylation buffer’ lacking brevican protein during the loading step. A 60 s biosensor washing step was applied. Then, biosensors were exposed to the analyte (peptide) in working buffer (ranging between 0-10 μM BTP) for 300 s during the ‘association’ step. Finally, the biosensors were exposed to working buffer (without peptide) during the ‘dissociation’ step for 600 s. Binding affinity of each peptide was assessed through steady state analysis, where the response unit was plotted over peptide concentration. All data was plotted and curves were fitted using the non-linear ‘one-site specific binding’ fit, and the dissociation constant (KD) value was calculated using the GraphPad Prism software.
Binding kinetics analyses were performed using the Octet RED platform (Forte Bio) to measure the binding affinity of BTP-7, 8 and 9 to purified recombinant BΔg protein.

BT188 glioma stem cells = assay: Peptide uptake in BT188 (BΔg-high) versus BT145 (BΔg-low) glioma stem cells, fluorescence imaging; format: cell-based, human; conditions: fluorescein-labeled peptides, 5 μM
Description: FIGS. 3A-I. Peptide characterization for BΔg specificity in glioma stem cells. (a) Table summary listing the properties of 7 peptides (composed of 8 D-amino acid residues, SEQ ID NOs:3-9, in order of appearance) that were isolated from the OBOC library screen. MW=molecular weight; KD=Kyte-Doolittle scale for amino acid hydropathy (positive scores indicate […]) (Kyte and Doolittle, J. Mol. Biol. 157, 105-132 (1982)). (b) Chemical structure showing the linkage between the peptide and FITC. (c) Western blot analysis showing the level of BΔg and Bcan in human embryo kidney (HEK) cells, and Bcan-overexpressing HEK cells (HEK-Bcan). […] Each group was normalized to a no-blocking (vehicle) control. Statistics were performed using multiple t-tests, and significance was measured in comparison to each vehicle control (p<0.0001). (e) Uptake of fluorescein-labeled BTP-2, 7, 8, 9, and 10 (at 5 μM conc.) in BT188 (BΔg-high) or BT145 (BΔg-low) glioma stem cells (GSCs). Western blot analysis on the top right confirms the BΔg expression level. […] Statistics were performed using the two-way ANOVA and Tukey's Multiple Comparison test. (f) Chemical structure showing the linkage between the peptide and Cy5.5 dye. (g) Western blot analysis showing the expression of BΔg in GBM-6 cells, with negligible BΔg level in astrocytes or neural progenitor cells (NPC). (h) Graph showing the cell uptake ranking of the top 3 peptide candidates, BTP-7, 8 and 9 in GBM-6 cells as determined by flow cytometry analysis with s.d. error bars (5 μM conc.; nevents=20,000 cells; nexperiment=5). Each group is normalized to the control scramble peptide (Scr-8). Statistics were performed using the one-way ANOVA and Tukey's Multiple Comparison test (significance were measured in comparison to the Scr-8 control). (i) Bar graph showing the uptake of BTP-7, 8 and 9 in GBM-6 cells and NPC with 95% confidence interval error bars (1 μM conc.; nevents=20,000 cells). Statistics were performed using the two-way ANOVA and Sidak's Multiple Comparison test.

HEK-Bcan cells [3] = assay: Flow cytometry cell uptake, HEK-Bcan versus regular HEK cells; format: cell-based, human; conditions: Cy5.5-conjugated peptides, 5 μM
Experimental: as §1

GBM-6 cells = assay: Flow cytometry cell uptake in GBM-6 cells; format: cell-based, human; conditions: Cy5.5-conjugated peptides; for uptake in GBM-6 cells at 4° C. compared to 37° C.: 5 μM, inhibition of endocytosis
Experimental: as §1

Compound	uptake in HEK-Bcan cells in the presence of the blocking peptide (HEK-Bcan cells [1])	Kd [2]	size of the difference in uptake between BT188 and BT145 GSCs (ranking) (BT188 glioma stem cells)	uptake in BT188 GSCs compared with BT145 GSCs (BT188 glioma stem cells)	uptake in HEK-Bcan cells compared with regular HEK cells (HEK-Bcan cells [3])	uptake in GBM-6 GSCs compared with astrocytes (GBM-6 cells)	uptake in GBM-6 cells at 4° C. compared to 37° C. (GBM-6 cells)
BTP-10: BΔg-targeting peptide of 8 D-amino acid residues from OBOC screen; sequence only in FIG. 3A ([dS][dH][dW][dA][dV][dN][dR][dF]; not fully specified)	reduced uptake	–	–	–	–	–	–
CC[C@@H](C)[C@@H](NC(=O)[C@@H](C)NC(=O)[C@@H](CCCNC(=N)N)NC(=O)[C@@H](CCC(N)=O)NC(=O)[C@@H](CCCNC(=N)N)NC(=O)[C@@H](CCCNC(=N)N)NC(=O)[C@@H](CC(=O)O)NC(=O)[C@@H](C)N)C(N)=O [BTP-9] (H-[dA][dD][dR][dR][dQ][dR][dA][dI]-NH2; N-terminus and C-terminus assumed)	reduced uptake	1.5 µM	largest and most significant difference	greater uptake	–	–	–
BTP-9-Cy5.5 ([dA][dD][dR][dR][dQ][dR][dA][dI]-{Ahx-Pra(Cy5.5)-NH2})	–	–	–	–	significantly higher	significantly higher	significantly reduced
BTP-8-Cy5.5 ([dT][dI][dR][dK][dL][dV][dR][dH]-{Ahx-Pra(Cy5.5)-NH2})	–	–	–	–	significantly higher	significantly higher	significantly reduced
